# Measurements taken from patent US20200024278A1, “COMPOSITION COMPRISING ANTIBIOTIC COMPOUND AND AN HETEROCYCLIC COMPOUND AND THEIR USE IN PREVENTING OR TREATING BACTERIAL INFECTIONS” (MUTABILIS, priority 2016, published 2020).
# How the values were obtained:
# Assay in all cases: MIC, broth microdilution (CLSI), substance alone or ATB combined with compound at 4 or 8 μg/mL
# SAU 29213 = format: cell-based, S. aureus; conditions: for MIC ATB combined with compound: compound @8 μg/ml, SAU 29213
# Outline: (§1)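 Potentiation format: antibiotic dilution series run with test compound held at 4 or 8 μg/mL, alongside compound-alone MICs. Broth microdilution per CLSI in ca-MHB, 16-20 h at 35° C.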
# ECO 190317 = format: cell-based, E. coli; conditions: ECO 190317; for MIC ATB combined with compound: compound @8 μg/ml
# Outline: as §1
# ECO UFR39 = format: cell-based, E. coli; conditions: ECO UFR39; for MIC ATB combined with compound: compound @8 μg/ml
# Outline: as §1
# ECL P99 = format: cell-based, E. cloacae; conditions: ECL P99; for MIC ATB combined with compound: compound @8 μg/ml
# Outline: as §1
# ABA UFR155 = format: cell-based, A. baumannii; conditions: substance alone
# Outline: as §1
# ABA UFR154 = format: cell-based, A. baumannii; conditions: substance alone
# Outline: as §1
# KPN 6299 = format: cell-based, K. pneumoniae; conditions: compound @8 μg/ml
# Outline: as §1
# KPN BAA-1898 = format: cell-based, K. pneumoniae; conditions: KPN BAA-1898; for MIC ATB combined with compound: compound @8 μg/ml
# Outline: as §1
# KPN UFR42 = format: cell-based, K. pneumoniae; conditions: KPN UFR42; for MIC ATB combined with compound: compound @8 μg/ml
# Outline: as §1
# SPN 49619 = format: cell-based, S. pneumoniae; conditions: SPN 49619; for MIC ATB combined with compound: compound @8 μg/ml
# Outline: as §1
# PAE 105250 = format: cell-based, P. aeruginosa; conditions: PAE 105250; for MIC ATB combined with compound: compound @8 μg/ml
# Outline: as §1
# PAE UFR90 = format: cell-based, P. aeruginosa; conditions: PAE UFR90; for MIC ATB combined with compound: compound @8 μg/ml
# Outline: as §1
# PAE UFR48 = format: cell-based, P. aeruginosa; conditions: PAE UFR48; for MIC ATB combined with compound: compound @8 μg/ml
# Outline: as §1
compound,measurement,setting,value
"O=C(O)C(F)(F)F.O=C1N2C[C@H](c3scnc3[C@H]2c2ncc[nH]2)N1OS(=O)(=O)[O-].[Na+] (relative stereo) [Example 6, sodium and 2,2,2-trifluoroacetate [trans-7-(1H-imidazol-3-ium--2-yl)-9-oxo-3-thia-5,8,10-triaza-tricyclo[6.2.1.0^2,6]undeca-2(6),4-dien-10-yl]sulfate]",MIC ATB combined with compound,SAU 29213; ATB ATM,>32 µg/mL
same,MIC ATB combined with compound,SAU 29213; ATB FEP,<=0.031 μg/mL
same,MIC ATB combined with compound,SAU 29213; ATB FOS,<=0.125 μg/mL
same,MIC ATB combined with compound,SAU 29213; ATB MEM,<=0.031 μg/mL
same,MIC ATB combined with compound,SAU 29213; ATB PIP,0.063 µg/mL
same,MIC,"SAU 29213; substance alone, SAU 29213 (MSSA 29213)",>32 µg/mL
same,MIC ATB combined with compound,ECO 190317; ATB ATM,<0.031 µg/mL
same,MIC ATB combined with compound,ECO 190317; ATB FEP,<0.031 µg/mL
same,MIC ATB combined with compound,ECO 190317; ATB FOS,<0.125 µg/mL
same,MIC ATB combined with compound,ECO 190317; ATB MEM,<0.031 µg/mL
same,MIC ATB combined with compound,ECO 190317; ATB PIP,<0.031 µg/mL
same,MIC,ECO 190317; substance alone,1 µg/mL
same,MIC ATB combined with compound,ECO UFR39; ATB ATM,<0.031 µg/mL
same,MIC ATB combined with compound,ECO UFR39; ATB FEP,<0.031 µg/mL
same,MIC ATB combined with compound,ECO UFR39; ATB FOS,<0.125 µg/mL
same,MIC ATB combined with compound,ECO UFR39; ATB MEM,<0.031 µg/mL
same,MIC ATB combined with compound,ECO UFR39; ATB PIP,<0.031 µg/mL
same,MIC,ECO UFR39; substance alone,2 µg/mL
same,MIC ATB combined with compound,ECL P99; ATB ATM,<0.031 µg/mL
same,MIC ATB combined with compound,ECL P99; ATB FEP,<0.031 µg/mL
same,MIC ATB combined with compound,ECL P99; ATB FOS,<0.125 µg/mL
same,MIC ATB combined with compound,ECL P99; ATB MEM,<0.031 µg/mL
same,MIC ATB combined with compound,ECL P99; ATB PIP,<0.031 µg/mL
same,MIC,ECL P99; substance alone,4 µg/mL
same,MIC,ABA UFR155,16 µg/mL
same,MIC,ABA UFR154,32 µg/mL
same,MIC ATB combined with compound,KPN 6299; ATB ATM,<0.031 µg/mL
same,MIC ATB combined with compound,KPN 6299; ATB FEP,<0.031 µg/mL
same,MIC ATB combined with compound,KPN 6299; ATB FOS,0.25 µg/mL
same,MIC ATB combined with compound,KPN 6299; ATB MEM,<0.031 µg/mL
same,MIC ATB combined with compound,KPN 6299; ATB PIP,<0.031 µg/mL
same,MIC ATB combined with compound,KPN BAA-1898; ATB ATM,<0.031 µg/mL
same,MIC ATB combined with compound,KPN BAA-1898; ATB FEP,<0.031 µg/mL
same,MIC ATB combined with compound,KPN BAA-1898; ATB FOS,<=0.125 μg/mL
same,MIC ATB combined with compound,KPN BAA-1898; ATB MEM,<0.031 µg/mL
same,MIC ATB combined with compound,KPN BAA-1898; ATB PIP,<0.031 µg/mL
same,MIC,KPN BAA-1898; substance alone,4 µg/mL
same,MIC ATB combined with compound,KPN UFR42; ATB ATM,<0.031 µg/mL
same,MIC ATB combined with compound,KPN UFR42; ATB FEP,<0.031 µg/mL
same,MIC ATB combined with compound,KPN UFR42; ATB FOS,<0.125 µg/mL
same,MIC ATB combined with compound,KPN UFR42; ATB MEM,<0.031 µg/mL
same,MIC ATB combined with compound,KPN UFR42; ATB PIP,<=0.031 μg/mL
same,MIC,KPN UFR42; substance alone,4 µg/mL
same,MIC ATB combined with compound,SPN 49619; ATB ATM,<0.031 µg/mL
same,MIC ATB combined with compound,SPN 49619; ATB FEP,<0.031 µg/mL
same,MIC ATB combined with compound,SPN 49619; ATB FOS,<0.125 µg/mL
same,MIC ATB combined with compound,SPN 49619; ATB MEM,<0.031 µg/mL
same,MIC ATB combined with compound,SPN 49619; ATB PIP,<0.031 µg/mL
same,MIC,SPN 49619; substance alone,16 µg/mL
same,MIC ATB combined with compound,PAE 105250; ATB ATM,4 µg/mL
same,MIC ATB combined with compound,PAE 105250; ATB FEP,8 µg/mL
same,MIC ATB combined with compound,PAE 105250; ATB FOS,128 µg/mL
same,MIC ATB combined with compound,PAE 105250; ATB MEM,2 µg/mL
same,MIC ATB combined with compound,PAE 105250; ATB PIP,>32 µg/mL
same,MIC,PAE 105250; substance alone,>32 µg/mL
same,MIC ATB combined with compound,PAE UFR90; ATB ATM,8 µg/mL
same,MIC ATB combined with compound,PAE UFR90; ATB FEP,4 µg/mL
same,MIC ATB combined with compound,PAE UFR90; ATB FOS,8 µg/mL
same,MIC ATB combined with compound,PAE UFR90; ATB MEM,1 µg/mL
same,MIC ATB combined with compound,PAE UFR90; ATB PIP,>32 µg/mL
same,MIC,PAE UFR90; substance alone,>32 µg/mL
same,MIC ATB combined with compound,PAE UFR48; ATB ATM,8 µg/mL
same,MIC ATB combined with compound,PAE UFR48; ATB FEP,32 µg/mL
same,MIC ATB combined with compound,PAE UFR48; ATB FOS,32 µg/mL
same,MIC ATB combined with compound,PAE UFR48; ATB MEM,4 µg/mL
same,MIC ATB combined with compound,PAE UFR48; ATB PIP,>32 µg/mL
same,MIC,PAE UFR48; substance alone,>32 µg/mL
